From paper PMC11145868, “Protein target similarity is positive predictor of in vitro antipathogenic activity: a drug repurposing strategy for Plasmodium falciparum” (Journal of Cheminformatics, 2024)
Counter-ions that a name gives are not always drawn. Like-named read-outs stand apart in the source and are kept apart here. Numbered stars: 1 amine (or outer) side, 2 acyl side, 3 side chain; on linkers, the order of the positions; unused ones are H or OH. Bridge positions count the residues as written; N and C are the ends. Square brackets hold non-standard residues; d marks the D form. Peptide text beside a SMILES is read from it. I, II: the chains in the order shown. Actinocin(9to1) = Cc1c2oc3c(C)ccc(C(=O)[*:1])c3nc-2c(C(=O)[*:2])c(N)c1=O; NMeV = CN[C@H](C(=O)O)C(C)C; Sar = CNCC(=O)O

Assays:
P. falciparum Dd2-HLH [1] = experiment: microbe, parasite or virus in culture; format: cell-based, Plasmodium falciparum
P. falciparum Dd2-HLH [2] = experiment: microbe, parasite or virus in culture; format: cell-based, Plasmodium falciparum; remark: listed apart in the source
in vitro = settings: human
[3] = tested on: P. berghei-luciferase sporozoites; experiment: microbe, parasite or virus in culture; format: cell-based, Plasmodium berghei
HEK293T cells [4] = tested on: HEK293T cells
[5] = Mammalian cell cytotoxicity assay, HepG2 (CellTiter-Glo, 72 h); settings: human
HEK293T cells [6] = experiment: Mammalian cell cytotoxicity assay, HEK293T (CellTiter-Glo, 72 h); settings: read-out: HEK CC50
[7] = Plasmodium falciparum, DD2, P. falciparum blood-stage parasites, 72 hours in culture, read-out: Blood stage 72h EC50
[8] = Plasmodium berghei, HepG2, liver-stage parasites, 48 hours in culture, read-out: Liver stage 48h EC50
[9] = Plasmodium falciparum, DD2, 72 h, read-out: Blood stage 72h EC50
[10] = Plasmodium falciparum, DD2, 48 h, read-out: Blood stage 48h EC50
[11] = P. falciparum blood-stage parasites, 72 hours in culture, read-out: Blood stage 72h EC50
[12] = liver-stage parasites, 48 hours in culture, read-out: Liver stage 48h EC50
[13] = P. falciparum blood-stage parasites, 48 hours in culture, read-out: Blood stage 48h EC50
[14] = Plasmodium falciparum, DD2, blood-stage parasites, 72 h in culture, read-out: Blood stage 72 h EC50
[15] = Plasmodium falciparum, DD2, blood-stage parasites, 48 h in culture, read-out: Blood stage 48 h EC50
[16] = Plasmodium berghei, liver-stage parasites, 48 h in culture, read-out: Liver 48 h EC50
[17] = Plasmodium falciparum, DD2, Hec50, 48 h, read-out: Blood stage 48 h EC50

SMILES	CC50 (in vitro) [µM]	EC50 [3, 8] [µM]	EC50 (P. falciparum Dd2-HLH [1]; [9]) [µM]	EC50 (P. falciparum Dd2-HLH [1]; [11]) [µM]	CC50 (HEK293T cells [4]) [µM]	CC50 (HepG2 cells) [µM]	EC50 [3, 12] [µM]	further results
C[C@@H]1C[C@@H]([C@H](O)CC2CC(=O)NC(=O)C2)C(=O)[C@@H](C)C1 [Cycloheximide]	0.759	0.109						EC50 (P. falciparum Dd2-HLH [1]; [7]): 0.301 µM; EC50 (P. falciparum Dd2-HLH [2]; Plasmodium falciparum, DD2, P. falciparum blood-stage parasites, 48 hours in culture, read-out: Blood stage 48h EC50): 0.178 µM
CC[C@@]1(O)C[C@H](O[C@H]2C[C@H](N(C)C)[C@H](O[C@H]3C[C@H](O)[C@H](O[C@H]4CCC(=O)[C@H](C)O4)[C@H](C)O3)[C@H](C)O2)c2c(cc3c(c2O)C(=O)c2c(O)cccc2C3=O)[C@H]1C(=O)OC [Aclarubicin]	0.166	2.23	0.302					EC50 (P. falciparum Dd2-HLH [2]; [10]): 0.154 µM
CC(=O)[C@]1(O)Cc2c(O)c3c(c(O)c2[C@@H](O[C@H]2C[C@H](N)[C@H](O)[C@H](C)O2)C1)C(=O)c1ccccc1C3=O [Idarubicin]	0.036	0.843	0.302					EC50 (P. falciparum Dd2-HLH [2]; [10]): 1.87 µM
CO[C@H]1/C=C\C=C(/C)C(=O)NC2=CC(=O)C(NCCN(C)C)=C(C[C@@H](C)C[C@H](OC)[C@H](O)[C@@H](C)/C=C(\C)[C@@H]1OC(N)=O)C2=O [Alvespimycin hydrochloride]	0.164	0.129	0.273					EC50 (P. falciparum Dd2-HLH [2]; [10]): 0.159 µM
COc1ccc(C)cc1NC(=O)Nc1nc2ccc(Nc3ncnc4cc(OCCCN5CCN(C)CC5)c(OC)cc34)cc2s1 [Compound 4SC-203]				0.729	3	4.69	3.33	
NC(=O)[C@@H](CC1CC1)[C@@H](CCC(F)(F)F)C(=O)N[C@H]1N=C(c2ccccc2)c2cccc(F)c2NC1=O [BMS-983970]				0.084	> 9.95	0.059	0.102	EC50 (P. falciparum Dd2-HLH [2]; [13]): 0.063 µM
Cn1/c(=N\C#N)n(-c2ccc(C(C)(C)C#N)nc2)c2c3cc(-c4cnc(N)c(C(F)(F)F)c4)ccc3ncc21 [Panulisib]				0.159	0.011	0.01	0.077	EC50 (P. falciparum Dd2-HLH [2]; [13]): 0.019 µM
CCN(CC)CCN1C(=O)c2c(c3c4cccc(Cl)c4n([C@@H]4O[C@H](CO)[C@@H](OC)[C@H](O)[C@H]4O)c3c3[nH]c4c(Cl)cccc4c23)C1=O [Becatecarin]				0.194	0.143	0.158	7.16	
CCCNCC(O)COc1ccccc1C(=O)CCc1ccccc1 (stereo not shown) [Propafenone SR]					> 9.95	> 9.99		EC50 (P. falciparum Dd2-HLH [1]; read-out: Blood stage 72h EC50): 0.566 µM; EC50 (P. falciparum Dd2-HLH [2]; read-out: Blood stage 48h EC50): 0.253 µM; EC50 ([3]; read-out: Liver stage 48h EC50): > 10 µM
C[C@@H](Oc1cc(-c2cnn(C3CCNCC3)c2)cnc1N)c1c(Cl)ccc(F)c1Cl [Crizotinib]	> 9.95	8.52	0.827					EC50 (P. falciparum Dd2-HLH [2]; [10]): 0.225 µM
CCCCCN=C(N)Nc1nc(-c2cnc(C)[nH]2)cs1 [CP 66948]				0.977	> 9.95	> 9.95	> 10	EC50 (P. falciparum Dd2-HLH [2]; [13]): 0.615 µM
CC(C)CCNC(=O)C(CC(C)C)NC(=O)C1OC1C(=O)O (stereo not shown) [EP-475]				0.313	> 9.95	> 9.99	> 10	EC50 (P. falciparum Dd2-HLH [2]; [13]): 0.267 µM
Cc1c2oc3c(C)ccc(C(=O)N[C@@H]4C(=O)N[C@H](C(C)C)C(=O)N5CCC[C@H]5C(=O)N(C)CC(=O)N(C)[C@@H](C(C)C)C(=O)O[C@@H]4C)c3nc-2c(C(=O)N[C@@H]2C(=O)N[C@H](C(C)C)C(=O)N3CCC[C@H]3C(=O)N(C)CC(=O)N(C)[C@@H](C(C)C)C(=O)O[C@@H]2C)c(N)c1=O [Dactinomycin, reference compound] (I: T[dV]P[Sar][NMeV] / II: T[dV]P[Sar][NMeV]; ester I:1-I:C, II:1-II:C; linker I:N-II:N via Actinocin(9to1))	0.009							CC50 at 72 h [5]: 0.003 µM; EC50 (P. falciparum Dd2-HLH [1]; [14]): 0.008 µM; EC50 (P. falciparum Dd2-HLH [2]; [15]): 0.003 µM; EC50 [3, 16]: 0.073 µM
CCNCc1cncc(-c2ccc3[nH]nc(-c4nc5c(F)cc(F)cc5[nH]4)c3c2)c1C [AG-024322]				0.423	0.145	0.112	2.99	
COC(=O)C[C@](O)(CCCC(C)(C)O)C(=O)O[C@@H]1C(OC)=C[C@]23CCCN2CCc2cc4c(cc2[C@H]13)OCO4 [Homoharringtonine, reference compound]	0.032		0.007					EC50 (P. falciparum Dd2-HLH [2]; [17]): 0.006 µM; EC50 [3, 16]: 0.026 µM
COc1cccc2c1C(=O)c1c(O)c3c(c(O)c1C2=O)C[C@@](O)(C(=O)CO)C[C@@H]3O[C@H]1C[C@H](N2CCO[C@H](OC)C2)[C@H](O)[C@H](C)O1 [Nemorubicin, reference compound]	0.005							CC50 at 72 h [5]: 0.002 µM; EC50 (P. falciparum Dd2-HLH [1]; [14]): 0.009 µM; EC50 (P. falciparum Dd2-HLH [2]; [15]): 0.004 µM; EC50 [3, 16]: 0.009 µM
O=C1c2ccccc2C(=O)c2sc(-c3ccco3)nc21 [INO-5042]				0.403	1.33	0.705	2.07	
NC(=O)C(c1ccccc1)(c1ccccc1)[C@@H]1CCN(CCc2ccc3c(c2)CCO3)C1 [Darifen/Acin Hydrobromide]	> 9.95	> 10	0.324					CC50 at 72 h [5]: > 9.99 µM; EC50 (P. falciparum Dd2-HLH [2]; [10]): 1.43 µM
CCOC(=O)[C@@H]1O[C@H]1C(=O)NC(CC(C)C)C(=O)N1CCN(Cc2ccc(OC)c(OC)c2OC)CC1 (stereo partly shown) [NCO 700]				0.033	> 9.95	> 9.95	> 10	EC50 (P. falciparum Dd2-HLH [2]; [13]): 0.016 µM
CS[C@H]1SC[C@H]2C(=O)N(C)[C@@H](C(C)C)C(=O)OC[C@@H](NC(=O)c3cnc4ccccc4n3)C(=O)N[C@@H](C)C(=O)N(C)[C@@H]1C(=O)N(C)[C@@H](C(C)C)C(=O)OC[C@@H](NC(=O)c1cnc3ccccc3n1)C(=O)N[C@@H](C)C(=O)N2C [Echinomycin]	0.001	0.002						CC50 at 72 h [5]: 0.001 µM; EC50 (P. falciparum Dd2-HLH [1]; [7]): 0.003 µM
O=C(CC1NCCCC1O)Cn1cnc2cc(Br)c(Cl)cc2c1=O (stereo not shown) [Halofuginone, reference compound]			0.001					EC50 (P. falciparum Dd2-HLH [2]; [17]): 0.001 µM; CC50 at 72 h (in vitro): 0.088 µM; EC50 [3, 16]: 0.07 µM
Cc1ccc(CCCO)c(NCc2ccc3nc(NCCCN4CCOCC4)n(Cc4nc(C)ccc4O)c3c2)c1 [TMC-353121]				0.65			> 10	CC50 (HEK293T cells [6]; HEK293T cells): > 9.95 µM; EC50 (P. falciparum Dd2-HLH [2]; [13]): 0.319 µM
O=C1c2ccccc2-n2c1nc1ccccc1c2=O [Tryptanthrin]	> 9.95	0.041	0.562					EC50 (P. falciparum Dd2-HLH [2]; [10]): 0.737 µM
Cc1[nH]c2ccccc2c1CCNCc1ccc(/C=C/C(=O)NO)cc1 [Panobinostat Lactate]				0.051			0.131	CC50 (HEK293T cells [6]; HEK293T cells): 0.078 µM; EC50 (P. falciparum Dd2-HLH [2]; [13]): 0.02 µM
N[C@@H]1[C@H]2CN(c3nc4c(cc3F)c(=O)c(C(=O)O)cn4-c3ccc(F)cc3F)C[C@@H]12 [Trovafloxacin mesilate, reference compound]	> 9.95	> 10	0.669					EC50 (P. falciparum Dd2-HLH [2]; Plasmodium falciparum, DD2, read-out: EC50, antiplasmodial drug sensitivity assays in bloodstage): 9.95 µM
CCc1ccc(OCc2ccccc2C(=O)Nc2ccc3nc(C)cc(N)c3c2)cc1 [JTC-801]				0.635			0.429	CC50 (HEK293T cells [6]; HEK293T cytotoxicity): 1.81 µM; EC50 (P. falciparum Dd2-HLH [2]; [13]): 0.123 µM
Cc1cc2c(C(N)=O)cccc2n1-c1nc2c(c(NCc3ccccc3)n1)COCC2 [CB-5083]	0.469		0.608					CC50 at 72 h [5]: 0.468 µM; EC50 (P. falciparum Dd2-HLH [2]; [10]): 0.233 µM; EC50 ([3]; Plasmodium berghei, HepG2, 48 h, read-out: Liver stage 48h EC50): 0.54 µM
